{"source": "patent US7608585B2", "about": "“Compositions for inhibition of necrosis induced by a neurotrophin” (Neurotech Pharmaceuticals Co., Ltd., priority 2004, dated 2009)", "type_in_all_cases": "cell-based, Rat", "key": {"[1]": {"tested_on": "ROS in cortical neurons", "test": "ROS imaging by oxidized DCDHF-DA (DCF) and hydroethidine fluorescence", "experimental": "Cortical cell cultures (DIV 12-15) grown on glass bottom dishes were loaded with 10 μM dichlorodihydro fluorescein diacetate (DCDHF-DA) or 5 μM hydroethidium (Molecular Probes, Eugene, Oreg.) plus 2% Pluronic F-127 in HEPES-buffered control salt solution (HCSS) buffer containing (in mM): 120 NaCl, 5 KCl, 1.6 MgCl2, 2.3 CaCl2, 15 glucose, 20 HEPES, and 10 NaOH. Cultures were incubated for 20 min at 37° C., and washed three times with HCSS buffer. […] The fluorescence images were analyzed using a QuantiCell 700 system (Applied imaging, UK).\nSuperoxide production through activation of NADPH oxidase was analyzed by measuring the oxidation of HEt and DCDHF to ethidium and DCF, respectively, in cortical neurons after exposure to a sham operation, 100 ng/ml BDNF, or 100 ng/ml BDNF plus 3 nM DPI for 32 hr (FIG. 15)."}, "[2]": {"tested_on": "NADPH oxidase (p22-phox, gp91-phox, p47-phox) mRNA", "test": "RT-PCR of NADPH oxidase subunit mRNA", "experimental": "RT-PCR experiments were performed to confirm the BDNF-sensitive genes derived from cDNA expression microarray, cytochrome b558 as it constitutes p22-phox and gp91-phox subunits of NADPH oxidase, a pro-oxidant enzyme generating superoxide from oxygen.\nTotal RNA (1 μg each) was incubated in a reaction mixture containing dNTP (2.5 mM each), RNasin (0.5 Unit), oligo dT primer (100 ng), and MMLV reverse transcriptase (200 Unit) at 37° C. for 1 hr. The samples were incubated at 92° C. for 10 min and transferred to 4° C. The reverse transcribed cDNA was subjected to PCR amplification. PCR was performed according to manufacturer's procedure (Takara Shuzo Co., Japan) sequentially (denaturation-annealing-extension) at following conditions: for p47-phox, 94° C. for 30 S, 55° C. for 30 S, and 72° C. for 60 S (28 cycles); for p22-phox (homologous to cytochrome b558 in microarray) and gp91-phox, 94° C. for 45 S, 60° C. for 60 S, and 72° C. for 120 S (33 cycles); for GAPDH, 94° C. for 35 S, 55° C. for 45 S, and 72° C. for 90 S (25 cycles). Primer sequences used were as follows (5′-3′): for p22-phox, […] (forward) and […] (reverse); for p47-phox, CAGCCA […] (forward) and […] (reverse); for gp91-phox, […] TG (forward) and […] (reverse); for GAPDH, […] (forward) and […] (reverse). PCR products were run on a 1.2% agarose gel and visualized with ethidium bromide. The relative amount of mRNA was measured using LAS-1000 systems (Fuji Photofilm Co., Japan), normalized to levels of GAPDH mRNA. DNA sequencing was performed with Big Dye Terminator Chemistry from Perkin-Elmer Applied Biosystems on ABI PRISM™ 377 DNA sequencer (Foster City, Calif.)"}, "[3]": {"tested_on": "NADPH oxidase activation (p47-phox, p67-phox)", "test": "Subcellular fractionation and western blot, translocation of p47-phox and p67-phox", "settings": "exposed for 16-32 hr", "experimental": "Activation of NADPH oxidase involves translocation of the cytosolic p47-phox and p67-phox subunits into the plasma membrane (Clark et al., 1989, Trans. Assoc. Am. Physicians., 102, 224-230). We examined if treatment with BDNF would activate NADPH oxidase through isolating the cytosol and membrane fraction.\nCortical cell cultures were washed with ice-cold PBS and resuspended in an isotonic buffer containing 10 mM HEPES, pH 8.0, 250 mM sucrose, 1 mM EDTA, 1 mM EGTA, 1 mM dithiothreitol (DTT), 2 mM PMSF, 100 μg/ml leupeptin, and 10 μg/ml pepstatin A. For isolating the cytosol and membrane fraction, the lysate was homogenized with a homogenizer (KONTE, Vieland, N.J.), centrifuged at 9,000 g for 10 min, and the supernatant was then centrifuged at 100,000 g for 1 hr.\nThe membrane fraction was obtained by resuspending the pellet with 50 μl lysis buffer and the cytosolic fraction was obtained from the supernatant. As shown in <EXAMPLE 7-4>, western blot experiments were performed to analyze protein levels of NADPH oxidase subunits using available antibodies for gp91-phox, p47-phox, and p67-phox."}, "[4]": {"tested_on": "NADPH oxidase subunits gp91-phox, p47-phox, p67-phox", "test": "Western blot of NADPH oxidase subunits", "settings": "over 16-32 hr exposure", "experimental": "Western blot experiments were performed to analyze protein levels of NADPH oxidase subunits using available antibodies for gp91-phox, p47-phox, and p67-phox.\nCortical cell cultures were lysed in a lysis buffer containing 50 mM Tris-HCl (pH 7.5), 1% Nonidet P-40, 150 mM NaCl, 0.5% deoxycholic acid, 0.1% sodium dodecyl sulfate (SDS), 1 mM PMSF (phenylmethylsulfonyl fluoride), 10 μg/ml pepstain A, and 100 μg/ml leupeptin. Cell lysates were centrifuged at 12,000 g for 10 min. approximately 25 μg of protein was subjected to electrophoresis on 12% SDS-polyacrylamide gel and transferred to a nitrocellulose membrane. The blot was incubated in 2.5% bovine serum albumin for 1 hr, incubated with goat polyclonal primary antibodies, anti-gp91-phox, anti-p67-phox, or anti-p47-phox antibodies (1:1000, Santa Cruz, Santa Cruz, Calif.), and then reacted with a biotinylated anti-goat secondary antibody. Immunoreactivity was detected with Vectastain ABC kit (Vector Laboratory, Burlingame, Calif., USA) and luminol for enhanced chemiluminescence Intron, Korea). The signal was analyzed by quantitative densitometry using LAS-1000 systems (Fuji Photofilm Co., Japan)."}, "[5]": {"tested_on": "p47-phox and p67-phox in cortical cell cultures", "test": "Immunocytochemistry of p47-phox and p67-phox", "settings": "32 hr following exposure", "experimental": "Immunocytochemistry was performed to identify which types of cells express NADPH oxidase in cortical cell cultures containing neurons and glia.\nCortical cell cultures (DIV 12-14) grown on glass bottom dishes were fixed in 4% paraformaldehyde for 30 min, incubated in 10% horse serum for 1 hr, and double-immunolabeled with a mouse monoclonal antibody against NeuN (1:400 dilution, Chemicon, Temecula, Calif.) and a goat polyclonal antibody against p47-phox or p67-phox (1:200 dilution, Santa Cruz, Santa Cruz, Calif.) for 2-4 hr. Cultures were then reacted with fluorescein isothiocyanate-conjugated anti-goat IgG (1:200 dilution, Organon Teknika Corp., NC) and Texas red-conjugated anti-mouse IgG (1:200, Vector Laboratory, Burlingame, Calif.) for 1-2 hr. The fluorescence images were collected and analyzed with a fluorescence microscopy (Zeiss, Germany) equipped with the Real-14™ precision digital camera (Apogee Instrument, Tucson, Ariz.) and ImagePro Plus Plug-in (Silver Spring, Md.)."}, "[6]": {"tested_on": "Neuron-rich cortical cell cultures", "test": "Serum deprivation-induced neuronal apoptosis, counting viable neurons", "experimental": "For neuron-glia mixed cultures, 10 μM cytosine arabinoside (Ara C) was included to stop the overgrowth of non-neuronal cells to cultures at DIV 5-7 when glial cells were confluent underneath neurons. After 2 days, cultures were then fed with plating medium lacking fetal serum twice a week. Cultures were maintained at 37° C. in a humidified 5% CO2 incubator. For neuron-rich cultures (>95%), 2.5 μM Ara C was included to cultures at 2-3 days in vitro (DIV 2-3) as previously described (Gwag et al., 1997).\nMixed cortical cell cultures (DIV 12-14) were rinsed in serum free MS (MEM supplemented with 26.5 mM sodium bicarbonate and 21 mM glucose) and then exposed to various concentrations of NGF, BDNF or NT-3 in serum free MS. Neuronal cell death was analyzed by measuring the level of lactate dehydrogenase (LDH) released into the bathing medium. The percent neuronal death was normalized to the mean LDH value released after a sham control (defined as 0%) or continuous exposure to 500 μM NMDA for 24 hr (defined as 100%) The latter produces complete neuronal death within 24 hr. For experiments for serum deprivation, neuron-rich cortical cell cultures (DIV 7) were placed into serum free MS containing 1 μM MK-801 as described (Gwag et al., 1995). Neuronal death was analyzed 24 and 48 hr later by counting viable neurons excluding Trypan Blue satained.\nNeuron-rich cortical cell cultures (DIV 7) were deprived of serum, alone (serum deprivation) or in the presence of 100 ng/ml BDNF, 100 ng/ml BDNF plus 3 nM DPI, 3 nM DPI, 100 ng/ml BDNF plus 100 μM trolox, or 100 μM trolox. Neuronal death was assessed 24 hr and 48 hr later by counting viable neurons."}}, "data": [{"substance": "BDNF: brain-derived neurotrophic factor, a neurotrophin", "values": [{"measurement": "Oxidation of HEt and DCDHF", "setting": "[1]; 100 ng/ml BDNF for 32 hr", "result": "increased oxidation"}, {"measurement": "Fluorescent intensity of DCF in cortical neurons", "setting": "[1]; exposed for 16 hr", "result": "increased"}, {"measurement": "Intraneuronal levels of ROS ([ROS]i)", "setting": "[1]; over 24-32 hr", "result": "further increased"}, {"measurement": "mRNA levels of p22-phox and gp91-phox", "setting": "[2]; 4 hr later, lasted over the next 12 hr", "result": "maximally increased"}, {"measurement": "mRNA levels of p47-phox subunit", "setting": "[2]; from 30 min following administration", "result": "increased gradually"}, {"measurement": "mRNA levels of p22-phox and gp91-phox", "setting": "[2]; within 2 hr after treatment", "result": "increase"}, {"measurement": "Levels of p47-phox and p67-phox in cytosolic and membrane fraction", "setting": "[3]", "result": "reduced in the cytosolic fraction and increased in the membrane fraction"}, {"measurement": "Protein levels of NADPH oxidase subunits gp91-phox, p47-phox, and p67-phox", "setting": "[4]", "result": "increased"}, {"measurement": "Signals of p47-phox and p67-phox (immunoreactivity)", "setting": "[5]", "result": "increased exclusively in neurons"}, {"measurement": "Protective effects of BDNF following serum deprivation", "setting": "[6]; 100 ng/ml, within 48 hrs", "result": "disappeared"}, {"measurement": "Neuronal apoptosis", "setting": "[6]; serum deprivation, 100 ng/ml BDNF", "result": "prevented neuronal apoptosis"}]}]}
